# Measured values taken from ChEMBL document CHEMBL5247609, “Novel nitric oxide-releasing derivatives of pyranocarbazole as antitumor agents: Design, synthesis, biological evaluation, and nitric oxide release studies” (Eur J Med Chem, 2022).
# Calls of active or inactive are those of the source. The calls are words filed in the database; no cut-off is given here.
# Legend:
# MDA-MB-231 [1] = experiment: Induction of morphological changes in human MDA-MB-231 cells at 0.5 to 2 uM measured after 24 hrs by bright field inverted microscopic analysis; assay type: functional, cell-based; conditions: dose 0.5-2 µM
# MDA-MB-231 [2] = experiment: Induction of cell cycle arrest in human MDA-MB-231 cells assessed as decrease in cyclin B1 expression at 0.5 to 2 uM by Western blotting analysis; assay type: functional, cell-based; conditions: dose 0.5-2 µM, time 24.0 hrs
# MX1 = experiment: Induction of apoptosis in human MX1 cells assessed as early apoptotic cells measured at 2 uM after 48 hrs by FITC-Annexin-V and propidium iodide based flow cytometric analysis (reference value: 6.30%); assay type: functional
# MDA-MB-231 [3] = experiment: Induction of apoptosis in human MDA-MB-231 cells assessed as late apoptotic cells measured at 2 uM after 48 hrs by FITC-Annexin-V and propidium iodide based flow cytometric analysis (reference value: 2.68%); assay type: functional
# MDA-MB-231 [4] = experiment: Antitumor activity against human MDA-MB-231 cells xenografted in BALBC mouse assessed as inhibition of tumor growth at 24 mg/kg, ip administered every 3 days for 21 days relative to control; assay type: functional; conditions: MDA-MB-231, 504 h, time 21 day, read-out: TGI
# [5] = Toxicity in BALBC mouse xenografted with human MDA-MB-231 cells assessed as weight loss at 50 to 150 mg/kg, IG administered every 3 days for 21 days; assay type: organism-based; conditions: in vivo, po, 504 h, dose 50-150 mg/kg, time 21 day
smiles,measurement,setting,value
CC1(C)C=Cc2c(c(/C=C/C(=O)NCCOc3no[n+]([O-])c3S(=O)(=O)c3ccccc3)cc3c2[nH]c2ccc(C(C)(C)C)cc23)O1,Activity,MDA-MB-231 [1],Active
same,Activity,MDA-MB-231 [2],Active
same,Activity,MX1,85.3%
same,Activity,MDA-MB-231 [3],12.8%
same,inhibition in vivo at 24 mg/kg,MDA-MB-231 [4],84.3%
same,Activity,[5],Non-Toxic
